Laboratory results published in patent US20040259952A1 (priority 2001, published 2004).

Legend:
[1] = Single dose study: safety and tolerability; format: in vivo, human; settings: SNAC administered alone
Experimental: Cromolyn sodium was orally administered to healthy human subjects in a study designed to evaluate the safety, tolerability, oral absorption and pharmacokinetics data following various doses of cromolyn orally administered in combination with the delivery agent SNAC as capsules. […] This study was a randomized, open label, oral, single escalating dose administration study in healthy, fasted volunteers.
On day one of each study treatment period, medication (capsules) was administered following an 8-hour overnight fast. The capsules were swallowed with up to 120 mL of water to the subjects in an upright position. After each dosing, safety, and pharmacokinetic measures were taken, and cromolyn concentrations were evaluated.

[2] = Multiple dose study (twice daily for ten days): plasma pharmacokinetics of cromolyn and SNAC
Experimental: Two groups of human males were defined: group 1 consisted of 12 healthy male volunteers, and group 2 had 12 allergic male volunteers. […] The dosing regimen is illustrated in Table 7 below.
Each subject received oral dosing of the study medication twice a day for nine days. On the last day (i.e., day 10), only the morning dose was administered. The capsules were administered with up to 200 mL of water to the subjects in an upright position. The first dose of each day was administered following an overnight fast, and the second dose of each day was administered at least 1 hour before a meal or 4 hours after a meal. No food was allowed for at least 4 hours before the oral dosing.
Pharmacodynamics were measured for Group 1 and 2 by measuring the length and width of the wheal and flare reaction, and permanent records were generated by marking on transparent tapes and/or by photographs. For Group 2 only, pharmacodynamics were also measured by VAS scores and PNIF measurements before and after nasal provocation test.

[3] = cited from earlier work
wheal and flare reaction = assay: Wheal and flare reaction after intracutaneous injection of codeine/histamine or allergen/histamine; format: in vivo, human; settings: stimulated with codeine
Experimental: From the literature there are indications that nasal and lung mast cells are more sensitive to cromolyn. […] Healthy subjects received codeine/histamine to induce wheal and flare reaction, and allergic subjects received allergen/histamine to induce wheal and flare reaction.
Wheal and flare reaction was read 15 min. after the injections of codeine/histamine or allergen/histamine, traced by pen onto transparent cellophane and the length and width of the reaction was measured. Wheal and flare reaction was measured for Group 1 (healthy subjects) after intracutaneous injection of codeine/histamine before the morning dose on day 1, at 45 minutes after the morning dose on days 1, 2, 4, 6, 8 and 10, and at 4 and 8 hours after the morning dose on days 2, 4 and 10. Wheal and flare reaction was measured for Group 2 (subjects with allergies) after injection with allergen/histamine before the morning dose on day 1, at 60 minutes after the morning dose on days 4 and 10, and at 8 hours after the morning dose on day 4.

[4] = Administration of cromolyn to rats: serum pharmacokinetics by HPLC; format: in vivo, Sprague-Dawley rats
Experimental: Male Sprague-Dawley rats weighing 225-275 grams were fasted for 24 hours. Rats were anesthized by intra-muscular injection with ketamine and thorazine. Experimental groups were dosed by oral gavage or by intravenous injection. Blood samples were collected serially via the tail artery. Serum obtained from whole blood was acidified and cromolyn extracted with ethyl acetate. The ethyl acetate was added to phosphate buffer or back extraction of cromolyn. Pharmacokinetic parameters were determined from extracted serum by HPLC.

[5] = Single escalating dose study of Cromolyn/SNAC capsules: plasma pharmacokinetics of cromolyn and SNAC; settings: with SNAC
Experimental: This study was a randomized, open label, oral, single escalating dose administration study in healthy, fasted volunteers.
The study was carried out in two parts. […] Safety and pharmacokinetic measures were collected and evaluated following each dose.
On day one of each study treatment period, medication (capsules) was administered following an 8-hour overnight fast. The capsules were swallowed with up to 120 mL of water to the subjects in an upright position.
The process could be summarized as follows: First, sieve SNAC powder through a screen, or delump it using a pestle/mortar.

[6] = cited from earlier work; remark: listed apart in the source
[7] = system: airway resistance of the sheep after challenge with ascaris; assay: Airway resistance after ascaris challenge in sheep given oral cromolyn
Experimental: A control formulation without cromolyn was also administered to an additional group. The biological effect of the cromolyn was assessed using changes in airway resistance of the sheep after challenge with ascaris.

[8] = serum cromolyn, Cromolyn 1.5 mg/kg IV

For O=C([O-])CCCCCCCNC(=O)c1ccccc1O.[Na+] [SNAC, Sodium N-[8-(2-hydroxybenzoyl)amino]caprylate], the “effect on human subjects” value [1] was “did not display any significant effect”, the Tmax ([2]; male, human, in vivo) was roughly 30 min and the half-life ([2]; male, human, in vivo) was roughly 25 min. The “accumulation during multiple dose treatment” value ([2]; twice daily dosing) was “no accumulation”.
For “5,5′-[(2-hydroxy-1,3-propanediyl)bis-(oxy)]4-oxo-4H-1-benzopyran-2-carboxylic acid [cromolyn]”, the solubility in water [3] is listed as “freely soluble in water”, the “effects on skin mast cell degranulation (wheal and flare)” value (wheal and flare reaction) is listed as “no significant effects” and the serum cromolyn concentrations ([4]; control group, cromolyn alone) is listed as “No detectable”. For the same molecule, the “area under the serum concentration-time curve (AUC)” value ([4]; intravenous cromolyn 1.5 mg/kg) was 20.4 µg·min/mL, the “peak serum concentration (Cmax)” value ([4]; intravenous cromolyn 1.5 mg/kg) was 1300 ng/mL and the “time of peak serum concentration (Tmax)” value ([4]; intravenous cromolyn 1.5 mg/kg) was 0 h. For the same molecule, the “Avg. AUC” value [4, 8] was 20.4 µg·min/mL, the “Avg. Cmax” value [4, 8] was 1300 ng/mL and the Tmax [4, 8] was 0 h. For the same molecule, the “time within which plasma concentrations declined to negligible levels” value ([2]; after each drug administration) was no more than 4 h, the “oral absorption (plasma concentration)” value ([2]; cromolyn administered without SNAC) was less than 2.3 ng/mL and the mean plasma concentrations ([2]; cromolyn given in combination with 600 mg SNAC) was “up to 65 ng/mL”. For the same molecule, the “time of peak concentrations after drug administration” value ([2]; cromolyn given orally in combination with SNAC, fasting male volunteers) was “approximately 20 minutes”, the plasma half-life ([2]; multiple dose study) was roughly 45 min and the mean elimination half-life [5] was 60 to 120 min. For the same molecule, the “time of maximum plasma concentrations post-dose” value [5] was “about 20 minutes”, the “dose eliminated unchanged in the feces” value ([6]; in vivo) was “Roughly 98%” and the absolute bioavailability ([6]; inhalation dose of 20 mg) was “about 8%”. For the same molecule, the “inhaled dose that reaches the lungs” value ([6]; inhalation) was 5-10%, the systemic bioavailability ([6]; oral cromolyn without the delivery agents) was “approximately 1%” and the “mean protection vs. the peak control response” value ([7]; 100 mg/kg cromolyn and 300 mg/kg delivery agent 12 hours prior to challenge) was 77%. The “P-Acaris % (change in airway resistance)” value ([7]; Drug Trial, Means, 300 mg/kg CR-1 & 100 mg/kg Cromolyn oral 12 hrs. before Ag. challenge) was “approximately 157%”.
